Data set [1] concerns Staphylococcus epidermidis. Description: Antibacterial activity against methicillin-resistant Staphylococcus epidermidis. Type of data set: functional.
Data set [2] concerns Streptococcus pyogenes. Description: Antibacterial activity against Streptococcus pyogenes. Format: functional.
The test system of data set [3] is Staphylococcus aureus. Description: Antibacterial activity against Staphylococcus aureus. Type of data set: functional.
The subject of data set [4] is Staphylococcus aureus. Description: Antibacterial activity against methicillin-resistant Staphylococcus aureus. Type of data set: functional.
Data set [5] can be described thus: Toxicity assessed as hemolysis of human erythrocytes. Type of data set: cell-based, Erythrocyte.
In data set [6] the test system is Streptococcus pyogenes. Description: Antibacterial activity against Streptococcus pyogenes upto 100 ug/mL. Format: functional, organism-based.
Data set [7] deals with Staphylococcus aureus. In words: Antibacterial activity against Staphylococcus aureus upto 100 ug/mL. Format: functional, organism-based.
Data set [8] has as its system Staphylococcus aureus. Description: Antibacterial activity against methicillin-resistant Staphylococcus aureus upto 100 ug/mL. Format: functional, organism-based.
Data set [9] can be described thus: Toxicity assessed as hemolysis of human erythrocytes at 500 ug/mL. Type of data set: cell-based, Erythrocyte. The following applies: read-out: Activity.

Each structure is given as a SMILES string. In brackets after ≈: the same amount, converted by molar mass. Activity calls are given as the source filed them. The rule behind the calls is not given here. Where a SMILES comes first, the peptide text is derived from it. [ ]: non-standard residue; d: D form. Bip = N[C@@H](Cc1ccc(-c2ccccc2)cc1)C(=O)O; Phe(4-I) = N[C@@H](Cc1ccc(I)cc1)C(=O)O

Turning to `Cc1cc(C)cc(-c2ccc(C[C@H](NC(=O)[C@@H](N)CCCNC(=N)N)C(=O)N[C@@H](CCCNC(=N)N)C(N)=O)cc2)c1`, the MIC (usually the lowest concentration found to suppress growth) in data set [1] was 9 µM (≈ 5.23 µg/mL). In addition, the outcome with Streptococcus pyogenes [2], with Staphylococcus aureus [3] and in the data set on Staphylococcus aureus [4] was inactive.
With `N=C(N)NCCC[C@H](NC(=O)[C@H](Cc1ccc(-c2ccc(-c3ccccc3)cc2)cc1)NC(=O)[C@@H](N)CCCNC(=N)N)C(N)=O`, the MIC in data set [1] is 4.8 µM (≈ 3.02 µg/mL); in the data set with Streptococcus pyogenes [2], 20 µM (≈ 12.6 µg/mL); against Staphylococcus aureus [3], 9.1 µM (≈ 5.72 µg/mL); against Staphylococcus aureus [4] it was 8.3 µM (≈ 5.22 µg/mL). Also, the EC50 (as a rule, the concentration that produces a half-maximal response) in [5] came out at 420 µg/mL (≈ 668 µM).
`N=C(N)NCCC[C@H](NC(=O)[C@H](Cc1ccc(-c2cccc(-c3ccccc3)c2)cc1)NC(=O)[C@@H](N)CCCNC(=N)N)C(N)=O`: the MIC in data set [1] is 4.8 µM (≈ 3.02 µg/mL); in the data set with Staphylococcus aureus [3], 16 µM (≈ 10.1 µg/mL); in the data set on Staphylococcus aureus [4] it was 11 µM (≈ 6.92 µg/mL). Besides, the result with Streptococcus pyogenes [2] was inactive.
`N=C(N)NCCC[C@H](NC(=O)[C@H](Cc1ccc(/C=C/c2ccccc2)cc1)NC(=O)[C@@H](N)CCCNC(=N)N)C(N)=O`: the MIC in [1] was 14 µM (≈ 8.1 µg/mL). Also, the result in the data set on Streptococcus pyogenes [2], in the data set with Staphylococcus aureus [3] and in the data set on Staphylococcus aureus [4] was inactive.
With `N=C(N)NCCC[C@H](NC(=O)[C@H](Cc1ccc(-c2ccccc2)cc1)NC(=O)[C@@H](N)CCCNC(=N)N)C(N)=O` (H-Arg-[Bip]-Arg-NH2), the outcome in the data set on Streptococcus pyogenes [6], with Staphylococcus aureus [7] and with Staphylococcus aureus [8] was inactive. The molecule further came in with an MIC in [1] of 59 µM (≈ 32.6 µg/mL).
As to `N=C(N)NCCC[C@H](NC(=O)[C@H](Cc1ccc(I)cc1)NC(=O)[C@@H](N)CCCNC(=N)N)C(N)=O` (H-Arg-[Phe(4-I)]-Arg-NH2), the outcome in the data set on Streptococcus pyogenes [6], in the data set on Staphylococcus aureus [7] and in the data set with Staphylococcus aureus [8] was inactive. In [1], this molecule came in with an MIC of 116 µM (≈ 69.9 µg/mL).
For `CCCCc1ccc(-c2ccc(C[C@H](NC(=O)[C@@H](N)CCCNC(=N)N)C(=O)N[C@@H](CCCNC(=N)N)C(N)=O)cc2)cc1`, the MIC was found to be 4.1 µM (≈ 2.5 µg/mL) in data set [1], 16 µM (≈ 9.74 µg/mL) against Streptococcus pyogenes [2], 9 µM (≈ 5.48 µg/mL) against Staphylococcus aureus [3] and 7 µM (≈ 4.26 µg/mL) with Staphylococcus aureus [4]. Besides, in data set [9], the hemolysis at 500 ug/mL came to 40%.
As to `N=C(N)NCCC[C@H](NC(=O)[C@H](Cc1ccc(-c2ccc3ccccc3c2)cc1)NC(=O)[C@@H](N)CCCNC(=N)N)C(N)=O`, the MIC in data set [1] amounted to 5 µM (≈ 3.01 µg/mL); in the data set with Staphylococcus aureus [3], 25 µM (≈ 15.1 µg/mL); in the data set with Staphylococcus aureus [4] it was 25 µM (≈ 15.1 µg/mL). Besides, the result in the data set on Streptococcus pyogenes [2] was inactive.
For `N=C(N)NCCC[C@H](NC(=O)[C@H](Cc1ccc(-c2cccc3ccccc23)cc1)NC(=O)[C@@H](N)CCCNC(=N)N)C(N)=O`, the MIC in data set [1] stood at 8.3 µM (≈ 5 µg/mL); in the data set with Staphylococcus aureus [4] it was 29 µM (≈ 17.5 µg/mL). Further, the result in the data set with Streptococcus pyogenes [2] and in the data set on Staphylococcus aureus [3] was inactive.
On to `CC(C)(C)c1ccc(-c2ccc(C[C@H](NC(=O)[C@@H](N)CCCNC(=N)N)C(=O)N[C@@H](CCCNC(=N)N)C(N)=O)cc2)cc1`, for which the MIC in [1] was 4.1 µM (≈ 2.5 µg/mL); with Streptococcus pyogenes [2], 25 µM (≈ 15.2 µg/mL); against Staphylococcus aureus [3] it was 11 µM (≈ 6.7 µg/mL); in the data set on Staphylococcus aureus [4] it was 9.7 µM (≈ 5.91 µg/mL).
Take `N=C(N)NCCC[C@H](NC(=O)[C@H](Cc1ccc(-c2ccccc2-c2ccccc2)cc1)NC(=O)[C@@H](N)CCCNC(=N)N)C(N)=O`: the MIC came to 6.4 µM (≈ 4.02 µg/mL) in data set [1], 28 µM (≈ 17.6 µg/mL) against Staphylococcus aureus [3] and 24 µM (≈ 15.1 µg/mL) with Staphylococcus aureus [4]. The result in the data set with Streptococcus pyogenes [2] was inactive.

The values are drawn from ChEMBL document CHEMBL1139193, “Application of the Suzuki-Miyaura cross-coupling to increase antimicrobial potency generates promising novel antibacterials” (Bioorg Med Chem Lett, 2007).
